The values that follow come from article PMC10166890, “Screening for DAX1/EWS‐FLI1 functional inhibitors identified dihydroorotate dehydrogenase as a therapeutic target for Ewing's sarcoma” (Cancer Medicine, 2023).

Entries after “also recorded” stand apart in the source; their conditions may differ.

The subject of data set [1] is A‐673 cell‐derived tumors. The data set is described as follows: A‐673 xenograft in SCID mice. In kind it is in vivo, mouse. Here is the method:
(§1) All animal studies were performed in accordance with Standards for Proper Conduct sof Animal Experiments at Kyowa Kirin Co., Ltd., under the approval of the company's Institutional Animal Care and Use Committee. Male C.B17/Icr‐scid/scidJcl (SCID) mice (5 weeks old) were purchased from CREA Japan (Tokyo, Japan). K‐733 was suspended in 0.5% (w/v) methylcellulose 400 (MC400; FUJIFILM Wako Pure Chemical) and orally administered to mice once daily. Ewing's cells were suspended in Dulbecco's phosphate‐buffered saline (DPBS; Thermo Fisher Scientific, Waltham, MA, USA) and injected subcutaneously into the ventral side of mice at 5 × 10^6 cells/0.1 mL/mouse for A‐673 and TC‐71 and 1 × 10^7 cells/0.1 mL/mouse for CADO‐ES1 and SK‐ES‐1. In experiments using TC‐71 cells, 0.3 mg of anti‐asialo GM1 antibody (FUJIFILM Wako Pure Chemical) was injected intraperitoneally 1 day before TC‐71 injection. The tumor size and body weight were measured every 3 or 4 days. The tumor volume was calculated using the following equation: Tumor volumemm^3=DL×DS×DS×1/2, where DL and DS represent the long diameter and short diameter, respectively. The pharmacokinetic analysis of K‐733 is described in Materials and Methods S2.

The subject of the next data set is A‐673 cells. The data set is described as follows: Cell viability assay (XTT), A‐673 cells. In kind it is cell-based, human. As to the method:
(§2) AsPC‐1, A‐673, and TC‐71 cells were seeded in 96‐well plates (800 cells/well for AsPC‐1, 2000 cells/well for A‐673, and 400 cells/well for TC‐71) and cultured overnight. Vehicle (DMSO) or a test compound diluted with the medium was then added to the wells (final DMSO concentration was 0.3%), and 72 h later, 2,3‐bis[2‐methoxy‐4‐nitro‐5‐sulfophenynl]‐2H‐tetrazolium‐5‐carboxanilide inner salt (XTT) reagent (Roche Diagnostics, Mannheim, Germany) was added to the medium. After 3‐h incubation at 37°C, the formation of the formazan dye was determined by measuring absorbance at 490 and 650 nm using a SpectraMax 340PC system (Molecular Devices, Sunnyvale, CA, USA).
For orientation: Formazan colour is commonly taken as a measure of viable cells.

A further data set relates to DAX1. The experiment in a line: DAX1 reporter assay (KJMGER8/pAGal9p4‐hDAX1 cells, luciferase). In kind it is cell-based, human. As to the method:
pAGal9‐hDAX1 and pAPPRE×10‐Luc + were transfected into KJMGER8 cells by electroporation using a Gene Pulser (Bio‐Rad Laboratories, Hercules, CA, USA), and clones stably expressing the DAX1 and luciferase reporter genes under the control of PPRE were selected. The obtained clone was termed KJMGER8/pAGal9p4‐hDAX1. KJMGER8/pAGal9p4‐hDAX1 cells (1.8 × 10^4 cells/well) were seeded in 384‐well white plates (Greiner Japan, Tokyo, Japan) and cultured in RPMI1640‐IPTSG medium containing 10 nM 17β‐estradiol (E2; Sigma‐Aldrich), dissolved in ethanol, with test compounds at concentration ranges of 0.01 to 10,000 nM or vehicle (dimethyl sulfoxide [DMSO]). The final DMSO concentration was ≤0.3%, and the ethanol concentration was 0.1%. The next day, Blight‐Glo Luciferase Assay Reagent (Promega, Madison, WI, USA) was added to the medium. The luciferase activity was measured using a TopCount NXT system (PerkinElmer, Waltham, MA, USA). IC50 values were calculated using XLfit version 4 (ID Business Solutions, Surrey, UK).
A DAX1 reporter assay system was constructed with the estrogen‐inducible Namalwa cell (KJMGER8 cell) by co‐transfection with pAGal9‐hDAX1 and pAPPRE×10‐Luc+.[18] In the obtained cell line KJMGER8/pAGal9p4‐hDAX1, DAX1 expression is induced by E2 treatment, and the expressed DAX1 increases luciferase expression. Reporter activity was increased by E2 treatment as expected (Figure S2). […] Using this DAX1 reporter assay system, small‐molecule compounds in an in‐house library were screened to obtain DAX1 inhibitors, and K‐234 was identified (Figure 1).
pAGal9-hDAX1 and pAPPRE×10-Luc+ were transfected into KJMGER8 cells by electroporation using a Gene Pulser (Bio-Rad Laboratories, Hercules, CA, USA), and clones stably expressing the DAX1 and luciferase reporter genes under the control of PPRE were selected. The obtained clone was termed KJMGER8/pAGal9p4-hDAX1. KJMGER8/pAGal9p4-hDAX1 cells (1.8×10^4 cells/well) were seeded in 384-well white plates (Greiner Japan, Tokyo, Japan) and cultured in RPMI1640-IPTSG medium containing 10 nM 17β-estradiol (E2; Sigma-Aldrich), dissolved in ethanol, with test compounds at concentration ranges of 0.01 to 10000 nM or vehicle (dimethyl sulfoxide [DMSO]). The final DMSO concentration was ≤0.3%, and the ethanol concentration was 0.1%. The next day, Blight-Glo Luciferase Assay Reagent (Promega, Madison, WI, USA) was added to the medium. The luciferase activity was measured using a TopCount NXT system (PerkinElmer, Waltham, MA, USA). IC50 values were calculated using XLfit version 4 (ID Business Solutions, Surrey, UK)

The next data set has as its target T1, DHODH (Mus musculus, UniProt O35435).
T1 construct: IC50 value for the mouse liver mitochondrial fraction; from tissue; host or cells: mouse liver mitochondria
The data set is described as follows: DHODH inhibition with mouse liver mitochondria. In kind it is biochemical.

For the next data set, the system named is TC‐71 cells. The experiment in a line: Cell viability assay (XTT), TC‐71 cells. The note with it: 72 h. In kind it is cell-based, human. As to the method:
as §2

The test system of data set [2] is EWS‐FLI1 target gene expression. The data set is described as follows: EWS‐FLI1 target gene expression in A‐673 tumors after 14‐day treatment. It counts as in vivo, mouse. To be noted: after 14‐day oral treatment. As to the method:
Total RNA was extracted using the RNeasy Plus Mini kit (Qiagen, Valencia, CA, USA) according to the manufacturer's protocol. cDNA was synthesized from 1 μg of total RNA using a SuperScript VILO cDNA synthesis kit (Thermo Fisher Scientific). Real‐time PCR was carried out using TaqMan Fast Universal PCR Master Mix (Thermo Fisher Scientific).
as §1
FIGURE 8 K‐733 exerts an anti‐tumor effect in mice bearing Ewing's sarcoma. (A) Plasma concentration‐time profiles of K‐733 in mice after a single oral administration of K‐733. Each plot represents the mean of duplicate measurements. (B) Antitumor effect of K‐733 on A‐673 cells. Indicated doses of K‐733 were orally administered once daily for 14 days. Each plot represents the mean of n = 5 and SE. C, Influence of K‐733 on EWS‐FLI1‐related genes. Tumors were sampled after 14 days oral administration of K‐733. Each plot represents the mean of n = 5 and SE. […]

T1 sequence (O35435 whole entry): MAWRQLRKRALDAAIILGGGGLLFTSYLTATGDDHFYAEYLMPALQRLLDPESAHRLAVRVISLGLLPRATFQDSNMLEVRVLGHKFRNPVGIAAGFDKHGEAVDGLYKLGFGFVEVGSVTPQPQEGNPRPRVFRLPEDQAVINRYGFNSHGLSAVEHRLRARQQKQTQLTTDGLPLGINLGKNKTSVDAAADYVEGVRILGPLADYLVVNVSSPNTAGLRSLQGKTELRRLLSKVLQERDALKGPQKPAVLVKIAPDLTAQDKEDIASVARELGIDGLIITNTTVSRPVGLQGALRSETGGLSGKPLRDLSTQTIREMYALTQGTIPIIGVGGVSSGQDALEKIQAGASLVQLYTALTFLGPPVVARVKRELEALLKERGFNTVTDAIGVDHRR

A word on the GI50: it is the concentration giving 50% growth inhibition. Higher therefore signals lower sensitivity of the cells. As usually defined, the IC50 is the concentration that gives 50% inhibition. Turning to `Cc1nc(-c2ccc(C3c4[nH]c5ccc(Cl)cc5c4CCN3C(=O)Oc3ccccc3)cc2)no1` (stereo not drawn) [K-733, phenyl 6‐chloro‐1‐(4‐(5‐methyl‐1,2,4‐oxadiazol‐3‐yl)phenyl)‐1,3,4,9‐tetrahydro‐2H‐pyrido[3,4‐b]indole‐2‐carboxylate], in data set [1] (100 mg/kg orally once daily, A‐673 tumors), the “Treatment per control ratio (T/C), greatest change” value is on record as 0.38. Further, the “Tumor volume, A‐673 xenograft” value in data set [1] (10, 30, or 100 mg/kg orally once daily up to 14 days) is listed as “reduced; also recorded: inhibited tumor growth”. For the same compound, in data set [1] (A‐673‐bearing mice, up to 100 mg/kg orally once daily), the Body weight result is “without a body weight loss; also recorded: without affecting body weight gain”. Further, the “Cell viability of A‐673 cells” value in the data set on A‐673 cells (72 h) was “decreased the viability”. In addition, the GI50 in the data set with A‐673 cells (Homo sapiens, A673, 50% growth inhibition concentration, A‐673 cells) amounted to 6.11 nM. For the same compound, the IC50 with DAX1 (Homo sapiens, KJMGER8/pAGal9p4‐hDAX1 cells, 10 nM E2, overnight, read-out: IC50 for inhibition of DAX1 reporter activity) worked out at 9.01 nM. In the data set with DAX1 (uridine 100 μM, overnight), the “Effect of uridine addition on inhibition of DAX1 reporter activity” value is listed as “completely abrogated”. Besides, inhibition on DHODH was half-maximal at 120 nM (IC50). The “Cell viability of TC‐71 cells” value in the data set on TC‐71 cells is recorded as “decreased the viability”. Besides, in data set [2], the “DAX1 mRNA levels in tumors” value is on record as “no marked effect”; the “mRNA levels of IGFBP3 and DKK1 in tumors” value was “increased”; the “mRNA levels of NKX2‐2 in tumors” value is listed as “decreased”.
